Patent US20220227765A1, “PYRIDO-INDOLE ANALOGUES AS GPX4 INHIBITORS” (Ferro Therapeutics, Inc., priority 2019, published 2022)
Read-outs that look alike come from different tables or passages of the source.

How the values were obtained:
Assay type in all cases: cell-based, human
A431 = assay: Cell proliferation (Alamar Blue) assay, A431
Protocol: (§1) Cell viability assay was performed to assess the potency of the compounds in human cancer cell lines 786-0 (renal cell carcinoma) and SJSA-1 (osteosarcoma). Additional cell lines, such as pancreatic cancer cell lines (Panc 02.13, BxPC-3, Panc 12, Panc 02.03, Panc 6.03, PSN-1, HPAC, and Capan-1), prostate cancer cell lines (PC-3, DU145, 22Rv1, NCI-H660, BPH1, LNCaP, BM-1604, and MDA PCa 2b), etc., can be tested in a similar method.
(§2) Cells (SJSA-1, 786-0 and A431) were seeded (5000 cells/100 μL/well) in 96-well tissue culture plate and incubated at 37° C./5% CO2 for 16-24 hours. The cells were then treated with compounds (25 μL of 5×). The compound concentrations were 10-0.0005 μM prepared in 3-fold serial dilutions with final DMSO concentration of 1%. The plates were then incubated for 24 h at 37° C./5% CO2 in a moist environment. Then Alamar Blue™ reagent (final concentration 1×-12.5 μL) was added to each well and incubated for 1.5 hours at 37° C./5% CO2. The plates were read on fluorescence reader at 540 nm excitation and 590 nm emission wavelengths. The IC50 values were subsequently determined using a sigmoidal dose-response curve (variable slope) in GraphPad Prism® 5 software. Table A-3, Table B-3 and Table C-3 show cell proliferation data for certain compounds as described herein.

SJSA-1 = assay: Cell proliferation (Alamar Blue) assay, SJSA-1
Protocol: as §1, §2

786-O = assay: Cell proliferation (Alamar Blue) assay, 786-O
Protocol: as §1, §2

[1] = Homo sapiens, A-431, 24 h, Table B-3, A431 cells
[2] = Homo sapiens, SJSA-1, 24 h, Table B-3, head prints SJSB-1, 24 h, read-out: IC50 (μM) SJSB-1
[3] = Homo sapiens, 786-0, 24 h, Table B-3, 786-O cells
[4] = Homo sapiens, A-431, 24 h, Table C-3, A431 cells
[5] = Homo sapiens, SJSA-1, 24 h, Table C-3, SJSA-1 cells, 24 h, read-out: IC50 (μM) SJSA-1
[6] = Homo sapiens, 786-0, 24 h, Table C-3, 786-O cells
[7] = Table B-3, head prints SJSB-1, 24 h, read-out: IC50 (μM) SJSB-1

SMILES | IC50 (A431; [1]) | IC50 (SJSA-1; [2]) | IC50 (786-O; [3]) | further results
C#CC(=O)N1[C@@H](CCCC)Cc2c([nH]c3ccccc23)[C@@H]1c1ccc(NC(=O)c2ccncc2)cc1 [Compound B-15] | > 10 µM | 0.029 µM | 0.013 µM | –
C#CC(=O)N1[C@@H](CCCC)Cc2c([nH]c3c(F)cc(F)cc23)[C@@H]1c1nccn1C [Compound B-24] | > 10 µM | 0.167 µM | 0.123 µM | –
COC(=O)[C@H]1Cc2c([nH]c3ccccc23)[C@H](c2ccc(N(C(=O)CCCC[C@@H]3SC[C@@H]4NC(=O)N[C@@H]43)C3CC3)cc2)N1C(=O)CCl [Compound B-8, methyl (1S,3R)-2-(2-chloroacetyl)-1-(4-(N-cyclopropyl-5-((3aS,4S,6aR)-2-oxohexahydro-1H-thieno[3,4-d]imidazol-4-yl)pentanamido)phenyl)-2,3,4,9-tetrahydro-1H-pyrido[3,4-b]indole-3-carboxylate] | – | 1.9 µM | 1.7 µM | –
CCCC[C@H]1Cc2c([nH]c3ccccc23)[C@](C)(c2ccc(F)cc2)N1C(=O)CCl [Compound C-14] | – | – | – | IC50 (A431; [4]): > 10 µM; IC50 (SJSA-1; [5]): 0.017 µM; IC50 (786-O; [6]): 0.017 µM
C#CC(=O)N1[C@@H](CCCC)Cc2c([nH]c3c(F)cc(F)cc23)[C@@H]1c1ccc(N2CCN(C)CC2)c(C#N)c1 [Compound B-58] | > 10 µM | 0.15 µM | 0.135 µM | –
C#CC(=O)N1C(CCCC)Cc2c([nH]c3ccccc23)[C@@H]1c1ccc(C(O)CO)cc1 (some centres unmarked) [Compound B-95] | > 10 µM | 0.74 µM | 0.32 µM | –
C#CC(=O)N1[C@@H](CCCC)Cc2c(n(C)c3c(F)cc(F)cc23)[C@@H]1c1ccc(NC(=O)OCCCCC)cc1 [Compound B-96] | – | 0.293 µM | 0.08 µM | –
CCCC[C@H]1Cc2c([nH]c3ccccc23)[C@H](c2ccc(C(=O)NC34CC5CC(CC(C5)C3)C4)cc2)N1C(=O)CCl [Compound B-1, N-((1R,3R)-adamantan-1-yl)-4-((1S,3S)-3-butyl-2-(2-chloroacetyl)-2,3,4,9-tetrahydro-1H-pyrido[3,4-b]indol-1-yl)benzamide] | 2.7 µM | 0.003 µM | 0.001 µM | –
C#CC(=O)N1[C@@H](CCCC)Cc2c([nH]c3ccccc23)[C@@H]1c1ccc(C(=O)NCCn2ccnc2)cc1 [Compound B-19] | > 10 µM | 0.294 µM | 0.367 µM | –
C#CC(=O)N1[C@@H](CCCC)Cc2c(n(CC#N)c3c(F)cc(F)cc23)[C@@H]1c1ccc(NC(=O)OCCCCC)cc1 [Compound B-97] | 6.35 µM | 0.0455 µM | 0.071 µM | –
C#CC(=O)N1[C@@H](CC)Cc2c([nH]c3c(F)cc(F)cc23)[C@@H]1c1ccc(F)cc1 [Compound B-61] | > 10 µM | 0.068 µM | 0.062 µM | –
C#CC(=O)N1[C@@H](CCCC)Cc2c([nH]c3ccccc23)[C@@H]1c1ccc(NC23CC4CC(CC(C4)C2)C3)cc1 [Compound B-17] | – | – | – | IC50 (A431; Table B-3, A431 cells, 24 h): 3.6 µM; IC50 (SJSA-1; [7]): 0.008 µM; IC50 (786-O; Table B-3, 786-O cells, 24 h): 0.006 µM
C#CC(=O)N1[C@@H](CCCC)Cc2c([nH]c3ccccc23)[C@@H]1CCCCCC [Compound B-93] | > 10 µM | 0.077 µM | 0.091 µM | –
C#CC(=O)N1[C@@H](CCCC)Cc2c([nH]c3c(F)cc(F)cc23)[C@@H]1C12CC(NC(=O)OCCCCC)(C1)C2 [Compound B-84] | – | 0.084 µM | 0.086 µM | –
C#CC(=O)N1[C@@H](CCCC)Cc2c([nH]c3c(F)cc(F)cc23)[C@@H]1COCCOC [Compound C-7] | – | – | – | IC50 (A431; [4]): 6.8 µM; IC50 (SJSA-1; [5]): 0.093 µM; IC50 (786-O; [6]): 0.043 µM
C#CC(=O)N1[C@@H](CCCC)Cc2c([nH]c3c(F)cc(F)cc23)[C@@H]1C(C)C [Compound B-72] | > 10 µM | 0.223 µM | 0.222 µM | –

SMILES | IC50 (A431; [1]) | IC50 (SJSA-1; [2]) | IC50 (786-O; [3]) | further results
C#CC(=O)N1[C@@H](CCCC)Cc2c([nH]c3ccccc23)[C@@H]1c1ccc(C(=O)NC23CC4CC(CC(C4)C2)C3)cc1 [Compound B-7, N-((3R,5R,7R)-adamantan-1-yl)-4-((1S,3S)-3-butyl-2-propioloyl-2,3,4,9-tetrahydro-1H-pyrido[3,4-b]indol-1-yl)benzamide] | 5.5 µM | 0.002 µM | 0.002 µM | –
C#CC(=O)N1[C@@H](CCCC)Cc2c([nH]c3c(F)cc(F)cc23)[C@@H]1C1CCC2(CC1)OCCO2 [Compound B-99] | > 10 µM | 0.504 µM | 0.207 µM | –
C#CC(=O)N1[C@@H](CCCC)Cc2c([nH]c3c(F)cc(F)cc23)[C@@H]1c1ccc(NC(=O)OCCCCC)cc1 [Compound B-91] | – | – | – | IC50 (SJSA-1; [7]): 0.075 µM; IC50 (786-O; Table B-3, 786-O cells, 24 h): 0.076 µM
CCCC[C@H]1Cc2c([nH]c3ccccc23)[C@H](c2ccc(NC(=O)c3ccncc3)cc2)N1C(=O)CCl [Compound B-14] | 3 µM | 0.019 µM | 0.015 µM | –
C#CC(=O)N1[C@@H](CCCC)Cc2c([nH]c3c(F)cc(F)cc23)[C@@H]1CC(C)C [Compound B-82] | > 10 µM | 0.16 µM | 0.2 µM | –
C#CC(=O)N1[C@@H](CCCC)Cc2c([nH]c3ccccc23)[C@@H]1c1ccc(NC23CC4CC(CC(O)(C4)C2)C3)cc1 [Compound B-44] | – | 0.014 µM | 0.006 µM | –
COC(=O)[C@H]1Cc2c([nH]c3ccccc23)[C@@H](c2ccc(N(C(=O)CCCC[C@@H]3SC[C@@H]4NC(=O)N[C@@H]43)C3CC3)cc2)N1C(=O)CCl [Compound B-9, methyl (1R,3R)-2-(2-chloroacetyl)-1-(4-(N-cyclopropyl-5-((3aS,4S,6aR)-2-oxohexahydro-1H-thieno[3,4-d]imidazol-4-yl)pentanamido)phenyl)-2,3,4,9-tetrahydro-1H-pyrido[3,4-b]indole-3-carboxylate] | – | > 10 µM | > 10 µM | –
C#CC(=O)N1[C@@H](CCCC)Cc2cc(OC)ccc2[C@@]1(C)c1ccc(NC23CC4CC(CC(C4)C2)C3)cc1 [Compound C-36] | – | – | – | IC50 (A431; [4]): > 10 µM; IC50 (786-O; [6]): 0.69 µM
C#CC(=O)N1[C@@H](CCCC)Cc2c(oc3ccccc23)[C@@H]1c1ccc(NC(=O)OCCCCC)cc1 [Compound B-101] | 7.97 µM | – | 0.155 µM | –
C[C@H]1Cc2c([nH]c3ccccc23)[C@](C)(c2ccc(F)cc2)N1C(=O)CCl [Compound C-18] | – | – | – | IC50 (SJSA-1; [5]): 0.332 µM; IC50 (786-O; [6]): 0.437 µM
C#CC(=O)N1[C@@H](CCCC)Cc2c([nH]c3ccccc23)[C@@H]1c1ccc(N2C3CCC2COC3)cc1 [Compound B-66, 1-((1 S,3 S)-1-(4-(3-oxa-8-azabicyclo[3.2.1]octan-8-yl)phenyl)-3-butyl-1,3,4,9-tetrahydro-2H-pyrido[3,4-b]indol-2-yl)prop-2-yn-1-one] | 4.35 µM | – | – | –
C#CC(=O)N1[C@@H](CCCC)Cc2cc(OC)ccc2[C@]1(C)c1ccc(NC23CC4CC(CC(C4)C2)C3)cc1 [Compound C-35] | – | – | – | IC50 (A431; [4]): > 10 µM; IC50 (786-O; [6]): 0.45 µM
C#CC(=O)N1CCc2c([nH]c3ccccc23)C1(C)c1ccc(F)cc1 (centres unmarked) [Compound C-19] | – | – | – | IC50 (SJSA-1; [5]): 1.89 µM; IC50 (786-O; [6]): 2.32 µM
C#CC(=O)N1[C@@H](CCCC)Cc2c([nH]c3c(F)cc(F)cc23)[C@@H]1C1CCN(C(=O)OC)CC1 [Compound B-75] | – | – | – | IC50 (SJSA-1; [7]): 0.06 µM; IC50 (786-O; Table B-3, 786-O cells, 24 h): 0.03 µM
C#CC(=O)N1[C@@H](CCCC)Cc2c(n(CC(O)CO)c3c(F)cc(F)cc23)[C@@H]1c1ccc(NC(=O)OCCCCC)cc1 (some centres unmarked) [Compound B-98] | > 10 µM | – | 0.181 µM | –
CC1(c2ccc(F)cc2)c2[nH]c3ccccc3c2CCN1C(=O)CCl (centres unmarked) [Compound C-20] | – | – | – | IC50 (SJSA-1; [5]): 3.98 µM; IC50 (786-O; [6]): 4.49 µM
